Data from ChEMBL document CHEMBL1201862, “PubChem BioAssay data set” (2004).
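Five concentrations, 48 hours, 96-well plates. Abbreviation: GI50, concentration required for 50% inhibition of growth.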 Active and inactive are the calls of the source. No stated cut-off is given here; in the data, active = GI50 up to about 1.1 µM and inactive = higher.

How the values were obtained:
Assay in all cases: NCI anticancer screen, dose series, 48 h
[1] = system: BT-549
[2] = system: UACC-62
[3] = system: SK-OV-3
[4] = system: DU-145
[5] = system: Hs-578T
[6] = system: A498
[7] = system: MDA-MB-231
[8] = system: SN12C
[9] = system: RXF 393
[10] = system: MDA-MB-435
[11] = system: HOP-62
[12] = system: KM12
[13] = system: U-251
[14] = system: T47D
[15] = system: A549
[16] = system: SW-620
[17] = system: SK-MEL-5
[18] = system: COLO 205
[19] = system: CAKI-1
[20] = system: OVCAR-4

Measured: GI50

CCCOP(=O)(OCCC)OC(C(F)(F)F)C(F)(F)F
inactive: [1] > 100 µM | [2] > 100 µM | [3] > 100 µM | [4] > 100 µM | [5] > 100 µM | [6] > 100 µM | [7] > 100 µM | [8] > 100 µM | [9] 44.9 µM | [10] > 100 µM | [11] > 100 µM | [12] > 100 µM | [13] > 100 µM | [14] > 100 µM

CN1Cc2cc(O)c(O)cc2C(O)C1 (centres undefined)
inactive: [1] > 100 µM | [15] > 100 µM | [2] > 100 µM | [3] > 100 µM | [16] > 100 µM | [17] > 100 µM | [18] > 100 µM | [4] > 100 µM | [5] > 100 µM | [19] > 100 µM | [7] > 100 µM | [8] > 100 µM | [9] > 100 µM | [10] 82.6 µM | [11] > 100 µM | [20] > 100 µM | [12] > 100 µM | [13] > 100 µM | [14] > 100 µM

O=C1CC(/C=C/c2ccco2)=C(O)C1=O
inactive: [1] 8.49 µM | [15] 23.9 µM | [2] 15.3 µM | [3] 21.9 µM | [16] 10.2 µM | [17] 13.7 µM | [18] 15.7 µM | [4] 16.2 µM | [5] 16.7 µM | [19] 14.6 µM | [7] 17.7 µM | [8] 13.6 µM | [9] 9.59 µM | [10] 16.4 µM | [11] 1.84 µM | [20] 14.2 µM | [12] 13.8 µM | [13] 13.6 µM | [14] 14.2 µM

CN(C)CCN1C(=O)c2ccccc2C1(O)c1ccc(Cl)cc1 (centres undefined)
inactive: [1] > 100 µM | [15] > 100 µM | [2] 32.7 µM | [3] > 100 µM | [16] > 100 µM | [17] 24 µM | [18] > 100 µM | [4] > 100 µM | [5] 74 µM | [19] 40.8 µM | [7] 44.6 µM | [8] > 100 µM | [9] 15.7 µM | [10] > 100 µM | [11] > 100 µM | [20] > 100 µM | [12] 69.5 µM | [13] 99.1 µM | [14] 94.8 µM

Oc1cccc(-c2ccc3c4c2O[C@H]2c5[nH]c6ccccc6c5C[C@@]5(O)[C@@H](C3)N(CC3CC3)CC[C@]425)c1
inactive: [1] 10 µM | [15] 1.78 µM | [16] 1.88 µM | [17] 3.48 µM | [18] 2.44 µM | [4] 1.87 µM | [5] 1.74 µM | [19] 1.75 µM | [7] 2.17 µM | [8] 1.67 µM | [9] 1.35 µM | [10] 1.72 µM | [20] 1.61 µM | [12] 1.98 µM | [14] 2.07 µM

c1ccc2c(c1)CCCN1CCc3ccccc3C21 (centres undefined)
inactive: [1] 60.1 µM | [15] 60.1 µM | [2] 35.2 µM | [3] 66.5 µM | [16] 35.5 µM | [17] 23.3 µM | [18] 46.7 µM | [4] > 100 µM | [5] > 100 µM | [19] 93.5 µM | [6] > 100 µM | [7] 48.1 µM | [8] 57 µM | [10] 19.8 µM | [11] 50 µM | [20] 9.46 µM | [12] 45.6 µM | [13] 51.5 µM | [14] > 100 µM

Cc1cccc(NC(=O)/C=C/c2ccccc2)c1C
inactive: [1] > 100 µM | [15] > 100 µM | [2] > 100 µM | [3] > 100 µM | [16] > 100 µM | [17] > 100 µM | [18] > 100 µM | [4] > 100 µM | [5] 37.7 µM | [19] > 100 µM | [6] > 100 µM | [7] > 100 µM | [8] > 100 µM | [10] > 100 µM | [11] 85.9 µM | [20] > 100 µM | [12] > 100 µM | [13] > 100 µM | [14] > 100 µM

COc1ccc([C@H]2CC(=O)C[C@H](c3ccc(OC)cc3OC)C23C(=O)c2ccccc2C3=O)c(OC)c1
inactive: [1] > 100 µM | [15] > 100 µM | [2] > 100 µM | [3] > 100 µM | [16] > 100 µM | [17] 68.1 µM | [18] > 100 µM | [4] > 100 µM | [5] > 100 µM | [19] > 100 µM | [7] > 100 µM | [8] > 100 µM | [9] > 100 µM | [10] > 100 µM | [11] > 100 µM | [20] > 100 µM | [12] > 100 µM | [13] > 100 µM | [14] > 100 µM

COc1ccc(/N=C2/SC(=N/N=c3\sc4ccccc4n3C)S/C2=N/c2ccc(OC)cc2)cc1
inactive: [1] 67.9 µM | [15] 20.4 µM | [2] 37.6 µM | [3] 76.7 µM | [16] > 100 µM | [17] 98.9 µM | [18] > 100 µM | [4] > 100 µM | [5] 36.2 µM | [19] > 100 µM | [7] 2.97 µM | [8] > 100 µM | [9] 34 µM | [10] > 100 µM | [11] 31.6 µM | [12] > 100 µM | [13] 55.5 µM | [14] 23.3 µM

CCN(CC)c1ccc(C2SCC(=O)N2c2ccc(NC(=O)c3ccc(N4C(=O)CSC4c4ccc(N(CC)CC)cc4)cc3)cc2)cc1 (centres undefined)
inactive: [1] > 100 µM | [15] > 100 µM | [2] > 100 µM | [3] > 100 µM | [16] > 100 µM | [17] > 100 µM | [18] > 100 µM | [4] > 100 µM | [5] > 100 µM | [19] > 100 µM | [7] > 100 µM | [8] > 100 µM | [9] > 100 µM | [10] > 100 µM | [11] 89.7 µM | [20] 70.8 µM | [12] 96.8 µM | [13] > 100 µM | [14] 26.2 µM

CC(=O)OCCCC(NC(=O)OC(C)(C)C)C(=O)NC(CCCOC(C)=O)C(=O)NC(Cc1ccc([N+](=O)[O-])cc1)C(=O)NCC(=O)OCc1ccccc1 (centres undefined)
inactive: [1] 18.5 µM | [15] 20.3 µM | [2] 15.2 µM | [3] 26.1 µM | [16] 16.9 µM | [17] 16.4 µM | [18] 17.6 µM | [4] 16.4 µM | [5] 14 µM | [19] 18.5 µM | [7] 13 µM | [8] 17.7 µM | [9] 13.1 µM | [10] 17.3 µM | [11] 19.5 µM | [20] 12.3 µM | [12] 15.6 µM | [13] 18.4 µM | [14] 18 µM
